What was measured:
[1] = target: T1, Broad substrate specificity ATP-binding cassette transporter ABCG2 (Mus musculus, UniProt Q7TMS5); assay: TP_TRANSPORTER: drug resistance in BCRP-expressing MEF3.8 cells; format: functional, cell-based
T1 sequence (Q7TMS5 whole entry): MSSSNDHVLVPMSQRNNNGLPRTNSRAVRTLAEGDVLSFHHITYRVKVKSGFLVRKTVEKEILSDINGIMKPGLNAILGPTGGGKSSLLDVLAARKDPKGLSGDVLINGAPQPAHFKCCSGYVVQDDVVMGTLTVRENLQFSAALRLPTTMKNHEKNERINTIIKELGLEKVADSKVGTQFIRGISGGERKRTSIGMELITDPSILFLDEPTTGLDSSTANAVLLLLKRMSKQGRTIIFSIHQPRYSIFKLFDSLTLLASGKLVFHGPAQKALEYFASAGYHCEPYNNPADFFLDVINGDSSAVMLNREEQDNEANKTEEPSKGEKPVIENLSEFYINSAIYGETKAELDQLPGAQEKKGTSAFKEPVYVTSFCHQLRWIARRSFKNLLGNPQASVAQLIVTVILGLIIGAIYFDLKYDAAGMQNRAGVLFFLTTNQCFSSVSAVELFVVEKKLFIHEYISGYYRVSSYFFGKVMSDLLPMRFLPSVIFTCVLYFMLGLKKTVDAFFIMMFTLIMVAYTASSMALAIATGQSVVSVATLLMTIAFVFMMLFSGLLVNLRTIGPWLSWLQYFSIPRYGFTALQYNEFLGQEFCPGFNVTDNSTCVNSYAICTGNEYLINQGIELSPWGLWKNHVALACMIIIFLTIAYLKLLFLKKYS

[2] = target: T1, Broad substrate specificity ATP-binding cassette transporter ABCG2; assay: TP_TRANSPORTER: transepithelial transport (basal to apical) in BCRP-expressing MDCKII cells; format: functional, cell-based; conditions: dog, mdck-ii

| SMILES | Activity [1] | Activity [2] |
| --- | --- | --- |
| COc1cc([C@@H]2c3cc4c(cc3[C@@H](O[C@@H]3O[C@@H]5CO[C@@H](C)O[C@H]5[C@H](O)[C@H]3O)[C@H]3COC(=O)[C@H]23)OCO4)cc(OC)c1O [ETOPOSIDE] | substrate [] | substrate [] |
| O=C1c2c(O)ccc(O)c2C(=O)c2c(NCCNCCO)ccc(NCCNCCO)c21 [MITOXANTRONE] | substrate [] | – |
| C(=N\NC1=NCCN1)/c1c2ccccc2c(/C=N/NC2=NCCN2)c2ccccc12 [BISANTRENE] | substrate [] | – |
| COc1cccc2c1C(=O)c1c(O)c3c(c(O)c1C2=O)C[C@@](O)(C(=O)CO)C[C@@H]3O[C@H]1C[C@H](N)[C@H](O)[C@H](C)O1 [DOXORUBICIN] | substrate [] | – |

Further lines, results first:

| Activity [1] | Activity [2] | SMILES |
| --- | --- | --- |
| substrate [] | – | CC[C@]1(O)C[C@H]2CN(CCc3c([nH]c4ccccc34)[C@@](C(=O)OC)(c3cc4c(cc3OC)N(C=O)[C@H]3[C@@](O)(C(=O)OC)[C@H](OC(C)=O)[C@]5(CC)C=CCN6CC[C@]43[C@@H]65)C2)C1 [VINCRISTINE] |
| substrate [] | – | CC[C@@]1(O)C(=O)OCc2c1cc1n(c2=O)Cc2cc3c(CN(C)C)c(O)ccc3nc2-1 [TOPOTECAN] |
| substrate [] | – | COc1cc([C@@H]2c3cc4c(cc3[C@@H](O[C@@H]3O[C@@H]5CO[C@@H](c6cccs6)O[C@H]5[C@H](O)[C@H]3O)[C@H]3COC(=O)[C@H]23)OCO4)cc(OC)c1O [TENIPOSIDE] |

Source: ChEMBL document CHEMBL2074346, “Mouse breast cancer resistance protein (Bcrp1/Abcg2) mediates etoposide resistance and transport, but etoposide oral availability is limited primarily by P-glycoprotein” (Cancer Res, 2003)
